How the values were obtained:
Mus musculus [1] = experiment: Tested for antiinflammatory activity on mouse type II collagen arthritis as Paw swelling of all animals in each group on day 37 at intraperitoneal dose of 9 mg/kg; format: functional
Mus musculus [2] = experiment: Tested for antiinflammatory activity on mouse type II collagen arthritis as Paw swelling of all animals in each group on day 37 at intraperitoneal dose of 4.5 mg/kg; format: functional
Mus musculus [3] = experiment: Incidence of disease (mouse type II collagen) was scored as the percentage of animals within each experimental group that exhibited joint or limb inflammation on day 23 at intraperitoneal dose of 4.5 mg/kg; format: functional
Mus musculus [4] = experiment: Incidence of disease (mouse type II collagen) was scored as the percentage of animals within each experimental group that exhibited joint or limb inflammation on day 44 at intraperitoneal dose of 9 mg/kg; format: functional
Mus musculus [5] = experiment: Incidence of disease (mouse type II collagen) was scored as the percentage of animals within each experimental group that exhibited joint or limb inflammation on day 37 at intraperitoneal dose of 4.5 mg/kg; format: functional
Mus musculus [6] = experiment: Tested for antiinflammatory activity on mouse type II collagen arthritis as Paw swelling of all animals in each group on day 44 at intraperitoneal dose of 9 mg/kg; format: functional
Mus musculus [7] = experiment: Tested for antiinflammatory activity on mouse type II collagen arthritis as Paw swelling of all animals in each group on day 30 at intraperitoneal dose of 9 mg/kg; format: functional
Mus musculus [8] = experiment: Tested for antiinflammatory activity on mouse type II collagen arthritis as Paw swelling of all animals in each group on day 30 at intraperitoneal dose of 4.5 mg/kg; format: functional
Mus musculus [9] = experiment: Incidence of disease (mouse type II collagen) was scored as the percentage of animals within each experimental group that exhibited joint or limb inflammation on day 23 at intraperitoneal dose of 9 mg/kg; format: functional
Mus musculus [10] = experiment: Tested for antiinflammatory activity on mouse type II collagen arthritis as Paw swelling of all animals in each group on day 23 at intraperitoneal dose of 9 mg/kg; format: functional
Mus musculus [11] = experiment: Incidence of disease (mouse type II collagen) was scored as the percentage of animals within each experimental group that exhibited joint or limb inflammation on day 37 at intraperitoneal dose of 9 mg/kg; format: functional
Mus musculus [12] = experiment: Tested for antiinflammatory activity on mouse type II collagen arthritis as Paw swelling of all animals in each group on day 44 at intraperitoneal dose of 4.5 mg/kg; format: functional
Mus musculus [13] = experiment: Incidence of disease (mouse type II collagen) was scored as the percentage of animals within each experimental group that exhibited joint or limb inflammation on day 30 at intraperitoneal dose of 4.5 mg/kg; format: functional
Mus musculus [14] = experiment: Incidence of disease (mouse type II collagen) was scored as the percentage of animals within each experimental group that exhibited joint or limb inflammation on day 30 at intraperitoneal dose of 9 mg/kg; format: functional
Mus musculus [15] = experiment: Incidence of disease (mouse type II collagen) was scored as the percentage of animals within each experimental group that exhibited joint or limb inflammation on day 44 at intraperitoneal dose of 4.5 mg/kg; format: functional
Mus musculus [16] = experiment: Tested for antiinflammatory activity on mouse type II collagen arthritis as Paw swelling of all animals in each group on day 23 at intraperitoneal dose of 4.5 mg/kg; format: functional
Mus musculus [17] = experiment: Incidence of disease (mouse type II collagen) was scored as the percentage of animals within each experimental group that exhibited joint or limb inflammation on day 37 at intraperitoneal of dose 18 mg/kg; format: functional
Mus musculus [18] = experiment: Incidence of disease (mouse type II collagen) was scored as the percentage of animals within each experimental group that exhibited joint or limb inflammation on day 44 at intraperitoneal of dose 6 mg/kg; format: functional
Mus musculus [19] = experiment: Tested for antiinflammatory activity on mouse type II collagen arthritis as Paw swelling* of all animals in each group on day 30 at intraperitoneal dose of 18 mg/kg; format: functional
Mus musculus [20] = experiment: Incidence of disease (mouse type II collagen) was scored as the percentage of animals within each experimental group that exhibited joint or limb inflammation on day 30 at intraperitoneal of dose 12 mg/kg; format: functional
Mus musculus [21] = experiment: Tested for antiinflammatory activity on mouse type II collagen arthritis as Paw swelling* of all animals in each group on day 37 at intraperitoneal dose of 12 mg/kg; format: functional
Mus musculus [22] = experiment: Tested for antiinflammatory activity on mouse type II collagen arthritis as Paw swelling* of all animals in each group on day 37 at intraperitoneal dose of 18 mg/kg; format: functional
Mus musculus [23] = experiment: Tested for antiinflammatory activity on mouse type II collagen arthritis as Paw swelling* of all animals in each group on day 23 at intraperitoneal dose of 12 mg/kg; format: functional
Mus musculus [24] = experiment: Incidence of disease (mouse type II collagen) was scored as the percentage of animals within each experimental group that exhibited joint or limb inflammation on day 30 at intraperitoneal of dose 6 mg/kg; format: functional
Mus musculus [25] = experiment: Tested for antiinflammatory activity on mouse type II collagen arthritis as Paw swelling* of all animals in each group on day 30 at intraperitoneal dose of 6 mg/kg; format: functional
Mus musculus [26] = experiment: Incidence of disease (mouse type II collagen) was scored as the percentage of animals within each experimental group that exhibited joint or limb inflammation on day 23 at intraperitoneal dose 6 mg/kg; format: functional
Mus musculus [27] = experiment: Incidence of disease (mouse type II collagen) was scored as the percentage of animals within each experimental group that exhibited joint or limb inflammation on day 30 at intraperitoneal of dose 18 mg/kg; format: functional
Mus musculus [28] = experiment: Incidence of disease (mouse type II collagen) was scored as the percentage of animals within each experimental group that exhibited joint or limb inflammation on day 23 at intraperitoneal dose 18 mg/kg; format: functional
Mus musculus [29] = experiment: Tested for antiinflammatory activity on mouse type II collagen arthritis as Paw swelling* of all animals in each group on day 44 at intraperitoneal dose of 18 mg/kg; format: functional
Mus musculus [30] = experiment: Tested for antiinflammatory activity on mouse type II collagen arthritis as Paw swelling* of all animals in each group on day 23 at intraperitoneal dose of 18 mg/kg; format: functional
Mus musculus [31] = experiment: Incidence of disease (mouse type II collagen) was scored as the percentage of animals within each experimental group that exhibited joint or limb inflammation on day 44 at intraperitoneal of dose 12 mg/kg; format: functional
Mus musculus [32] = experiment: Tested for antiinflammatory activity on mouse type II collagen arthritis as Paw swelling* of all animals in each group on day 23 at intraperitoneal dose of 6 mg/kg; format: functional
L1210 = experiment: Concentration required to inhibit the growth of L1210 cells.; format: functional, cell-based; details: Mus musculus
Mus musculus [33] = experiment: Tested for antiinflammatory activity on mouse type II collagen arthritis as Paw swelling* of all animals in each group on day 30 at intraperitoneal dose of 12 mg/kg; format: functional
Mus musculus [34] = experiment: Incidence of disease (mouse type II collagen) was scored as the percentage of animals within each experimental group that exhibited joint or limb inflammation on day 23 at intraperitoneal dose 12 mg/kg; format: functional
Mus musculus [35] = experiment: Tested for antiinflammatory activity on mouse type II collagen arthritis as Paw swelling* of all animals in each group on day 44 at intraperitoneal dose of 12 mg/kg; format: functional
Mus musculus [36] = experiment: Incidence of disease (mouse type II collagen) was scored as the percentage of animals within each experimental group that exhibited joint or limb inflammation on day 44 at intraperitoneal of dose 18 mg/kg; format: functional
Mus musculus [37] = experiment: Tested for antiinflammatory activity on mouse type II collagen arthritis as Paw swelling* of all animals in each group on day 44 at intraperitoneal dose of 6 mg/kg; format: functional
Mus musculus [38] = experiment: Incidence of disease (mouse type II collagen) was scored as the percentage of animals within each experimental group that exhibited joint or limb inflammation on day 37 at intraperitoneal of dose 6 mg/kg; format: functional
Mus musculus [39] = experiment: Incidence of disease (mouse type II collagen) was scored as the percentage of animals within each experimental group that exhibited joint or limb inflammation on day 37 at intraperitoneal of dose 12 mg/kg; format: functional
[40] = Concentration required to inhibit the growth of chang liver cells.; format: functional; details: Homo sapiens
Mus musculus [41] = experiment: Tested for antiinflammatory activity on mouse type II collagen arthritis as Paw swelling* of all animals in each group on day 37 at intraperitoneal dose of 6 mg/kg; format: functional

Compound `CCC(Cc1cnc2nc(N)nc(N)c2c1C)c1ccc(C(=O)NC(CCC(=O)O)C(=O)O)cc1` (configuration not stated) has a Paw swelling (Mus musculus [1]) of 3.09 mm, a Paw swelling (Mus musculus [2]) of 2.32 mm and an Animals (Mus musculus [3]) of 0%. For the same compound, the Animals (Mus musculus [4]) was 88%, the Animals (Mus musculus [5]) was 38% and the Paw swelling (Mus musculus [6]) was 2.99 mm. The Paw swelling (Mus musculus [7]) was 2.45 mm, the Paw swelling (Mus musculus [8]) was 2.18 mm and the Animals (Mus musculus [9]) was 0%. It also gave a Paw swelling (Mus musculus [10]) of 2.12 mm, an Animals (Mus musculus [11]) of 88% and a Paw swelling (Mus musculus [12]) of 2.68 mm. It also gave an Animals (Mus musculus [13]) of 12%, an Animals (Mus musculus [14]) of 50% and an Animals (Mus musculus [15]) of 75%. For the same compound, the Paw swelling (Mus musculus [16]) was 2.1 mm.

`C#CCN(Cc1cnc2nc(N)nc(N)c2c1)c1ccc(C(=O)NC(CCC(=O)O)C(=O)O)cc1` (configuration not stated) gave an Animals (Mus musculus [17]) of 38%, an Animals (Mus musculus [18]) of 100% and a Paw swelling (Mus musculus [19]) of 2.13 mm. The Animals (Mus musculus [20]) was 0%, the Paw swelling (Mus musculus [21]) was 2.3 mm and the Paw swelling (Mus musculus [22]) was 2.23 mm. The Paw swelling (Mus musculus [23]) was 2.17 mm, the Animals (Mus musculus [24]) was 38% and the Paw swelling (Mus musculus [25]) was 2.32 mm. It also gave an Animals (Mus musculus [26]) of 0%, an Animals (Mus musculus [27]) of 0% and an Animals (Mus musculus [28]) of 0%. The Paw swelling (Mus musculus [29]) was 2.27 mm, the Paw swelling (Mus musculus [30]) was 2.16 mm and the Animals (Mus musculus [31]) was 75%. The Paw swelling (Mus musculus [32]) was 2.12 mm, the IC50 (L1210) was 13 nM and the Paw swelling (Mus musculus [33]) was 2.16 mm. For the same compound, the Animals (Mus musculus [34]) was 0%, the Paw swelling (Mus musculus [35]) was 2.49 mm and the Animals (Mus musculus [36]) was 38%. It also gave a Paw swelling (Mus musculus [37]) of 2.65 mm, an Animals (Mus musculus [38]) of 88% and an Animals (Mus musculus [39]) of 50%. It also gave an IC50 [40] of 6.3 nM and a Paw swelling (Mus musculus [41]) of 2.46 mm.

Reference: ChEMBL document CHEMBL1129930, “Analogues of methotrexate in rheumatoid arthritis. 2. Effects of 5-deazaaminopterin, 5,10-dideazaaminopterin, and analogues on type II collagen-induced arthritis in mice” (J Med Chem, 1997)
